Patent publication US11000509B2, “Methods and compositions for daily ophthalmic administration of phentolamine to improve visual performance” (Ocuphire Pharma, Inc., priority 2013, dated 2021)
Structures can show the parent of a compound that is named as a salt. Where two headings read alike, the source gives them in different places.

Legend:
[1] = tested on: eyes of patients suffering from severe night vision difficulty; experiment: Example 1 clinical study: mesopic contrast sensitivity with glare, Holladay Automated Contrast Sensitivity System; assay type: in vivo, humans; settings: for percentage of eyes with at least a 50% improvement in contrast sensitivity relative to baseline: 0.5% or 1.0% (w/v) once daily, beginning with day 8
Text: Sixty patients with normal day vision (i.e., 20/40 or better) but which suffer from severe night vision difficulty were enrolled in the study. During the first period of the study, patients were randomized into three groups. The groups received either placebo, 0.5% (w/v) phentolamine mesylate, or 1.0% (w/v) phentolamine mesylate once daily for 15 days. The patients were observed on days 1, 4, 8, and 15 prior to administering the ophthalmic solution of phentolamine mesylate and then observed again two hours after the ophthalmic solution of phentolamine mesylate was administered. During the second period of the study, all sixty patients were instructed to administer an ophthalmic solution of phentolamine mesylate (1% (w/v)) as needed, but no more than once daily to each eye. The ophthalmic solution of phentolamine mesylate contained: 1% (w/v) phentolamine mesylate, 4% (w/v) mannitol, 3 mM sodium acetate, and water. The placebo was a solution containing 4% (w/v) mannitol, 3 mM sodium acetate, and water.
Patients in the study satisfied the following criteria: (1) 18-45 years of age and suffer from severe night vision difficulty, (2) 0.3 log improvement at two of five spatial frequencies (1.5, 3, 6, 12, and 18 cycles per degree) in at least one eye before and during illumination of the contralateral eye, using the Holladay Automated Contrast Sensitivity System test under mesopic room illumination with glare, and (3) photopic distance high-contrast visual acuity (corrected or uncorrected) of 20/40 or better in at least one eye.
Patients were to meet with a clinician for evaluation on study days 1, 4, 8, 15, and a post-dosing follow-up evaluation three or more days after administering the last dose in the second period. When patients met with the clinician, the following observations were made by the clinician: (1) mesopic contrast sensitivity with and without glare using the Holladay Automated Contrast Sensitivity System test, (2) mesopic distance high-contrast visual acuity using E-ETDRS Acuity Testing, (3) mesopic distance low-contrast visual acuity using E-ETDRS Acuity Testing, (4) photopic distance high-contrast visual acuity using E-ETDRS Acuity Testing, and (5) eye redness using the Cornea and Contact Lens Research Unit (CCLRU) Redness Grading Scale developed by the School of Optometry, University of New South Wales, but that the grading scale was as follows: (0) none, (0.5) very slight, (1) slight, (2) moderate, and (3) severe.
The primary efficacy endpoint is an increase of at least 0.3 log (50% or more improvement) in mesopic contrast sensitivity with glare at two or more frequencies at 1.5, 3, 6, 12, and 18 cycles per degree, measured with Holladay Automated Contrast Sensitivity System methodology.

[2] = tested on: eyes of patients with pupil size in dim light of greater than 7 mm; design: species or system humans; settings: human, in vivo
Experimental: Sixteen patients were randomized into four groups (of four subjects each). Each group was treated on three successive study visits separated by at least 4 days with one drop of ophthalmic oxymetazoline solution (Visine LR®) in each eye followed by one drop test article in each eye. The test article was a 0.2% (w/v) phentolamine mesylate solution, 0.4% (w/v) phentolamine mesylate solution, 0.8% (w/v) phentolamine mesylate solution, or placebo. Test articles contained the designed amount of phentolamine mesylate in a solution of Tears Naturale II® (from Alcon Labs). Placebo was just Tears Naturale II® (from Alcon Labs). Tears Naturale II® (from Alcon Labs) contains Dextran 70 (0.1% by weight), Hydroxypropyl Methylcellulose 2910 (0.3% by weight), Polyquarternium-1 (0.001% by weight), potassium chloride, water (purified), sodium borate, sodium chloride, and hydrochloric acid and/or sodium hydroxide as necessary to adjust the pH. The patients' eye redness and pupil diameters were recorded at baseline (i.e., prior to treatment administration), and at 30 minutes, 1 hour, 2 hours, 4 hours, and 8 hours after administration of test articles. The incidence of any treatment-emergent adverse events was also recorded. Total study duration was approximately nine hours.
Eye redness of patients' eyes was evaluated by the research assistant and recorded as a single integer of value 0 (no redness) to 4 (extreme redness) at baseline and each time point after treatment. Pupil diameters were measured to within 0.1 mm for each eye at baseline and each subsequent time point using a NeurOptics™ pupilometer. Monocular high contrast visual acuity was measured for each eye under photopic conditions at baseline and each subsequent time point in a darkened room using a Precision Vision™ High Contrast (100% tint) Visual Acuity Chart (Catalog #2102) backlit by the Precision Vision Illumination Box. Monocular low contrast visual acuity was measured for each eye under photopic conditions at baseline and each subsequent time point in a darkened room using a Precision Vision™ Low Contrast (5% tint) Visual Acuity Chart (Catalog #2186) backlit by the Precision Vision Illumination Box. Effect of treatment on glare was assessed using an experimental test method consisting of a panel with a high wattage central light emitting diode (LED) and a set of 7 lower wattage red LEDs radiating horizontally and vertically from the central light.
Comparisons of changes in mean values within treatment groups were tested for significance using two-tailed paired two sample t-tests with a threshold for significance set at p<0.01 (Bonferroni Correction for multiple paired t-tests). […] Differences in mean eye redness between treatment groups were evaluated using Kruskal-Wallis nonparametric testing. […]

Cc1ccc(N(CC2=NCCN2)c2cccc(O)c2)cc1 [Phentolamine Mesylate, phentolamine mesylate]
percentage of eyes with at least a 50% improvement in contrast sensitivity relative to baseline ([1]; tested prior to that day's dose (FIG. 2)): greater than 20%
percentage of eyes with at least a 50% improvement in contrast sensitivity relative to baseline ([1]; tested two hours after that day's dose (FIG. 1)): greater than 20%
pharmacokinetic half-life ([1]; from percentage of eyes with at least 50% improvement in contrast sensitivity after the last dose, second period, 1% (w/v) (FIG. 4A)): approximately two
percentage of eyes with at least a 50% improvement in contrast sensitivity, change over time ([1]; measured prior to that day's administration, from day 15 to day 32 (FIG. 3)): increased
efficacy with repeated dosing (contrast sensitivity) ([1]; once daily during the 15-day study period (FIGS. 1 and 2)): no diminution in efficacy was observed
Range of eye redness scores [2]: 0-1
eye redness [2]: modest increase in eye redness
mean eye redness versus placebo [2]: did not differ from placebo
Range of eye redness scores ([2]; 30 min): 0-1
